Data from article PMC5608031 (Hormone molecular biology and clinical investigation, 2017).

Molecular target: human cytosolic sulfotransferase 1C4 (hSULT1C4) (Homo sapiens, UniProt O75897)
Experiment: biochemical
Format: binding

human cytosolic sulfotransferase 1C4 (hSULT1C4), sequence (O75897 whole entry): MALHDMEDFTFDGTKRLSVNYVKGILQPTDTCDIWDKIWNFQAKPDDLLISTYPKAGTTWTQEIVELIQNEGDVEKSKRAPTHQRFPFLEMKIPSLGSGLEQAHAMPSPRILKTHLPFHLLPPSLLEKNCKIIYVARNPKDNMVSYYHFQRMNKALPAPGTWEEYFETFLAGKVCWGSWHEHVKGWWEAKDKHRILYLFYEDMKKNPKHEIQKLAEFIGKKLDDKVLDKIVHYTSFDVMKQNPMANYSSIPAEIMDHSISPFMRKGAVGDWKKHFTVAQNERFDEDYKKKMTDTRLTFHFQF

Kd: 2.8 ± 0.2 µM
SMILES: Nc1ncnc2c1ncn2[C@@H]1O[C@H](COP(=O)(O)O)[C@@H](OP(=O)(O)O)[C@H]1O [PAP]
